Laboratory results from patent publication US20240189235A1, “CATIONIC LIPIDS AND USES THEREOF” (MELLO BIOTECH TAIWAN CO., LTD., priority 2022, published 2024).

Test system: Cy5-mir302a-siRNA
Assay: Encapsulation efficiency of LNPs for small RNAs (RiboGreen fluorescence)
Type: physicochemical
Conditions: Table 1 in words
Protocol: To produce the present composition, the present cationic lipids (compound 6 or 22), cholesterol, DEG-PEG 2000, and distearoylphosphatidylcholine (DSPC) were fully mixed in ethanol at a molar ratio of 50:38.5:1.5:10, and the total volume was brought to 500 μL, thereby producing a liquid formulation of lipid nanoparticles (LNPs). As for control group, D-lin-MC3-DMA (MC30), an ionizable amino lipid that conventionally used in LNPs preparation, was mixed with cholesterol, DEG-PEG 2000, and DSPC at the same molar ratio as the present LNPs. […]
The encapsulation ratio of liposomes for encapsulating miRNAs or siRNAs was determined by fluorescence reader (Infinite F200 Pro) with the aid of RNA quantification kit containing a fluorescent dye (RiboGreen). […] The cationic lipid-RNA complexes (typically with a total volume of 50 μL for each sample well) were then mixed with the reagent from the RNA quantification kit in each well. […] The amount of miRNAs or siRNAs were quantified by interpolating their […] at 535 nm to that of the standard curve, and the encapsulation efficiency (EE) was calculated by the following formula: […]
where Wt is the total amount of miRNAs or siRNAs released in the LNPs lysis suspension, and Wi is the total quantity of miRNAs or siRNAs added initially during preparation. […]

Row | Structure (SMILES) | Liposome formation and siRNA encapsulation
1 | CCCCCC/C=C\CCCCCCCC(=O)NCC(=O)OCC(COC(=O)CN)OC(=O)CNC(=O)CCCCCCC/C=C\CCCCCC (centres unmarked) [Compound 22, (Z)-3-(2-aminoacetoxy)propane-1,2-diyl bis(2-((Z)-hexadec-9-enamido)acetate)] | successfully formed liposomes and encapsulated siRNAs therein
2 | CCCCC/C=C\C/C=C\CCCCCCCC(=O)NCC(=O)OC(COC(=O)CN)COC(=O)CN [Compound 6, 2-(2-((9Z,12Z)-octadeca-9,12-dienamido)acetoxy)propane-1,3-diyl bis(2-aminoacetate)] | successfully formed liposomes and encapsulated siRNAs therein
